Laboratory results: patent US20250281461A1 (The Board of Supervisors of Louisiana State University and …, priority 2021, published 2025)

Settings: mouse, in vivo

Cc1ccc(NC(=O)c2ccc(CN3CCN(C)CC3)cc2)cc1Nc1nccc(-c2cccnc2)n1 [Imatinib]
no significant changes: serum ALT levels | serum AST levels | serum BUN levels

COC(=O)Nc1nc2ccc(C(=O)c3ccccc3)cc2[nH]1 [Mebendazole]
no significant changes: serum ALT levels | serum AST levels | serum BUN levels
